Key:
Format in all cases: cell-based
[1] = molecular target: EP4 subtype of the human PGE2 receptor (Homo sapiens, UniProt P35408); assay: cAMP antagonism test on the human EP4 receptor (HTRF cAMP detection); settings: selectivity towards hEP4, IC50 measured by cAMP antagonism test
In short: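 Cells expressing human EP4 preincubated 20 min at RT with compound (0.8 nM–16.5 μM), then stimulated with PGE2 (0.3 nM in 3× solution, with IBMX) 60 min at RT. After lysis, cAMP measured by HTRF competition (665/620 nm ratio); antagonism seen as rise in FRET signal.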

[2] = molecular target: EP2 subtype of the human PGE2 receptor (Homo sapiens, UniProt P43116); assay: cAMP antagonism test on the human EP2 receptor (HTRF cAMP detection); settings: hEP2 receptor, read-out: Antagonism hEP2 IC50
Chain of EP2 subtype of the human PGE2 receptor (P43116 whole entry): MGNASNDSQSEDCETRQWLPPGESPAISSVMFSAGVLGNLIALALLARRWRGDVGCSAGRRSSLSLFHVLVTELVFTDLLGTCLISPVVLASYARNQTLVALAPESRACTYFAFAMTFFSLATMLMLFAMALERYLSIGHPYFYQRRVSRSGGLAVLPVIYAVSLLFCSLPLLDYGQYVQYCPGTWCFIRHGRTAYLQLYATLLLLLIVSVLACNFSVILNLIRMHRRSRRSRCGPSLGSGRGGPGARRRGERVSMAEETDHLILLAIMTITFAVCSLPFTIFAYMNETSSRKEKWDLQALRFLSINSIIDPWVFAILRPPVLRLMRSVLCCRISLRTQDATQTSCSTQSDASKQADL
In short: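 Cells expressing human EP2 preincubated 20 min at RT with compound (0.8 nM–16.5 μM), then stimulated 60 min with PGE2 (3× solution 1.5 nM) in PBS-IBMX. After 20 min lysis, cAMP measured by competitive HTRF with cAMP-d2 and Eu cryptate anti-cAMP antibody (665/620 nm ratio).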

[3] = molecular target: T1, human PGD receptor (Homo sapiens, UniProt Q13258); assay: cAMP antagonism test on the human prostaglandin D receptor (HTRF cAMP detection); settings: selectivity towards hDP, IC50 measured by cAMP antagonism test
T1 sequence (Q13258 1-359): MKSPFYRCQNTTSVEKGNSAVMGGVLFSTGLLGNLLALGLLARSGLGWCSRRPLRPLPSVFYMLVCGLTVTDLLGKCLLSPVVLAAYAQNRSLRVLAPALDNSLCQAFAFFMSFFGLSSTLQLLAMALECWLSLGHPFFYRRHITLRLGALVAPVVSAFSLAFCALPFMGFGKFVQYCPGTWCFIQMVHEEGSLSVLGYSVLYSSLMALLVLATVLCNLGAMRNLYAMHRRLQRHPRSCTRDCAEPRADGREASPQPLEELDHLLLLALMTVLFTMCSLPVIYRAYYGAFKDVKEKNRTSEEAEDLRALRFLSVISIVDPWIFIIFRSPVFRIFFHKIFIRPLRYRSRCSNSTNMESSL
In short: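 Cells pre-mixed with cAMP-d2 were preincubated with compound (0.8 nM–16.5 μM) for 20 min at RT, then stimulated with 3× PGD2 solution (6 nM, in PBS-IBMX) for 30 min at RT. After lysis (20 min), HTRF read at 665/620 nm; antagonism seen as rise in FRET ratio.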

Chain of EP4 subtype of the human PGE2 receptor (P35408 whole entry): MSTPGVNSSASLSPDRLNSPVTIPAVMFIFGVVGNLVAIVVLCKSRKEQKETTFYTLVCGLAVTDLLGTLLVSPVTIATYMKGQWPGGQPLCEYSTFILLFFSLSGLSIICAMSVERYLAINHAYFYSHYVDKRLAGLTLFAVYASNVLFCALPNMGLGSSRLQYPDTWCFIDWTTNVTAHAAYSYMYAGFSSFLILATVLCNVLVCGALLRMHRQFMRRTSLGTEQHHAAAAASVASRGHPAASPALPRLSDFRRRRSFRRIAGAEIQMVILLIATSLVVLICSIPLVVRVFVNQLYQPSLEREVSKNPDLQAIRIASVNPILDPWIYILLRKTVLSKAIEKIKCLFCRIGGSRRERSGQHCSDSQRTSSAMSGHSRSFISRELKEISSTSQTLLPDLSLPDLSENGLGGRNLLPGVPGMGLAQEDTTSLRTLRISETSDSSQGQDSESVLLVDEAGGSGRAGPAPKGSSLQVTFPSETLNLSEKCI

Row | Selectivity hEP2/hEP4 [1] | IC50 [2] [nM] | Selectivity hEP2/hDP [3] | Compound
1 | xxx (xxx > 100) | 15.6 | xxx (xxx > 100) | COc1cc(F)ccc1-c1ccc(C(=O)N2CCC(Cn3cc4c(C)c(C(=O)NCC(F)(F)F)ccc4n3)CC2)cc1 [Example 320, 2-({1-[(4′-fluoro-2′-methoxybiphenyl-4-yl)carbonyl]piperidin-4-yl}methyl)-4-methyl-N-(2,2,2-trifluoroethyl)-2H-indazol-5-carboxamide]
2 | xxx (xxx > 100) | 69.2 | xxx (xxx > 100) | COCCNC(=O)c1ccc2nn(CC3CCN(C(=O)c4ccc(-c5ncco5)cc4)CC3)cc2c1C [Example 35, N-(2-methoxyethyl)-4-methyl-2-({1-[4-(oxazol-2-yl)-benzoyl]piperidin-4-yl}methyl)-2H-indazol-5-carboxamide]
3 | xxx (xxx > 100) | 7.65 | xxx (xxx > 100) | Cc1c(C(=O)NCCOC2CCC2)ccc2nn(CC3CN(C(=O)c4ccc(OC(F)(F)F)cc4)C3)cc12 [Example 137, N-[2-(cyclobutyloxy)ethyl]-4-methyl-2-({1-[4-(trifluoromethoxy)benzoyl]azetidin-3-yl}methyl)-2H-indazol-5-carboxamide]
4 | xxx (xxx > 100) | 40 | xxx (xxx > 100) | Cc1c(C(=O)NCC(F)(F)F)ccc2nn(CC3CCN(C(=O)c4ccc(SC(F)(F)F)cc4)CC3)cc12 [Example 288, 4-methyl-N-(2,2,2-trifluoroethyl)-2-[(1-{4-[(trifluoromethyl)sulphanyl]benzoyl}-piperidin-4-yl)methyl]-2H-indazol-5-carboxamide]
5 | xxx (xxx > 100) | 18.5 | xxx (xxx > 100) | COCCNC(=O)c1ccc2nn(CC3CCN(C(=O)c4cn(C)c5ccccc45)CC3)cc2c1OC [Example 273, 4-methoxy-N-(2-methoxyethyl)-2-({1-[(1-methyl-1H-indol-3-yl)carbonyl]-piperidin-4-yl}methyl)-2H-indazol-5-carboxamide]
6 | xxx (xxx > 100) | 118 | xxx (xxx > 100) | Cc1c(C(=O)NCC(F)(F)F)ccc2nn(CC3CN(C(=O)c4ccc(Oc5ccc(C(F)(F)F)cn5)cc4)C3)cc12 [Example 177, 4-methyl-N-(2,2,2-trifluoroethyl)-2-{[1-(4-{[5-(trifluoromethyl)pyridin-2-yl]oxy}benzoyl)azetidin-3-yl]methyl}-2H-indazol-5-carboxamide]
7 | xxx (xxx > 100) | 35.5 | xxx (xxx > 100) | Cc1ccc(C(=O)N2CCC(Cn3cc4c(C)c(C(=O)NCCOCC5CC5)ccc4n3)CC2)cc1 [Example 85, N-[2-(cyclopropyl-methoxy)ethyl]-4-methyl-2-{[1-(4-methylbenzoyl)-piperidin-4-yl]-methyl}-2H-indazol-5-carboxamide]
8 | xxx (xxx > 100) | 50.1 | xxx (xxx > 100) | COCCNC(=O)c1cc2cn(CC3CCN(C(=O)c4ccc(C(F)(F)F)cc4)CC3)nc2cc1C [Example 211, N-(2-methoxyethyl)-6-methyl-2-({1-[4-(trifluoromethyl)benzoyl]piperidin-4-yl}-methyl)-2H-indazol-5-carboxamide]
9 | xxx (xxx > 100) | 104 | xxx (xxx > 100) | Cc1cc2nn(CC3CN(C(=O)c4ccc(Cl)cc4)C3)cc2cc1C(=O)NCCN1CCOCC1 [Example 278, 2-{[1-(4-chlorobenzoyl)azetidin-3-yl]methyl}-6-methyl-N-(2-morpholinoethyl)-2H-indazol-5-carboxamide]
10 | xxx (xxx > 100) | 18.2 | xxx (xxx > 100) | Cc1c(C(=O)NCCS(C)(=O)=O)ccc2nn(CC3CCN(C(=O)c4ccc(-c5ccc(F)cc5F)cc4)CC3)cc12 [Example 398, 2-({1-[(2′,4′-difluorobiphenyl-4-yl)carbonyl]piperidin-4-yl}methyl)-N-(2-mesylethyl)-4-methyl-2H-indazol-5-carboxamide]
11 | xx (xx: 10-100) | 223 | xx (xx: 10-100) | Cc1c(C(=O)NCC2COCCO2)ccc2nn(CC3CCN(C(=O)c4ccc(Cl)cc4)CC3)cc12 (single isomer, unassigned) [Example 414, (R or S)-2-{[1-(4-chlorobenzoyl)piperidin-4-yl]methyl}-N-(1,4-dioxan-2-ylmethyl)-4-methyl-2H-indazol-5-carboxamide]
12 | xxx (xxx > 100) | 32.4 | xxx (xxx > 100) | COC1CN(CCNC(=O)c2ccc3nn(CC4CCN(C(=O)c5ccc(Cl)cc5)CC4)cc3c2C)C1 [Example 238, 2-{[1-(4-chlorobenzoyl)piperidin-4-yl]methyl}-N-[2-(3-methoxyazetidin-1-yl)ethyl]-4-methyl-2H-indazol-5-carboxamide]
13 | x (x: 1-10) | 2140 | x (x: 1-10) | Cc1c(C(=O)NCC(C)(C)C)ccc2nn(CC3CCN(C(=O)c4ccc(Oc5ccc(C(F)(F)F)cc5)cc4)CC3)cc12 [Example 405, 4-methyl-N-neopentyl-2-[(1-{4-[4-(trifluoromethyl)phenoxy]benzoyl}piperidin-4-yl)methyl]-2H-indazol-5-carboxamide]
14 | xxx (xxx > 100) | 134 | xxx (xxx > 100) | COCCNC(=O)c1ccc2nn(CC3CCN(C(=O)c4ccc(-n5ccnc5)cc4)CC3)cc2c1C [Example 34, 2-({1-[4-(1H-imidazol-1-yl)-benzoyl]piperidin-4-yl}methyl)-N-(2-methoxyethyl)-4-methyl-2H-indazol-5-carboxamide]
15 | xxx (xxx > 100) | 43 | xxx (xxx > 100) | Cc1c(C(=O)NCC(F)(F)F)ccc2nn(CC3CCN(C(=O)c4ccc(-c5ccc(C(F)(F)F)cc5)cc4)CC3)cc12 [Example 315, 4-methyl-N-(2,2,2-trifluoroethyl)-2-[(1-{[4′-(trifluoromethyl)biphenyl-4-yl]-carbonyl}piperidin-4-yl)methyl]-2H-indazol-5-carboxamide]
16 | xxx (xxx > 100) | 109 | xxx (xxx > 100) | COc1c(C(=O)NCCN2CCOCC2)ccc2nn(CC3CN(C(=O)c4ccc(Cl)cc4)C3)cc12 [Example 258, 2-{[1-(4-chlorobenzoyl)azetidin-3-yl]methyl}-4-methoxy-N-(2-morpholinoethyl)-2H-indazol-5-carboxamide]
17 | x (x: 1-10) | 2610 | x (x: 1-10) | COCCNC(=O)c1cc2cn(CC3CN(C(=O)c4cc(F)cc(F)c4)C3)nc2cc1C [Example 179, 2-{[1-(3,5-Difluorobenzoyl)azetidin-3-yl]methyl}-N-(2-methoxyethyl)-6-methyl-2H-indazol-5-carboxamide]
18 | xxx (xxx > 100) | 7.77 | xxx (xxx > 100) | COCCNC(=O)c1ccc2nn(CC3CN(C(=O)c4ccc5cc(OC)ccc5c4)C3)cc2c1C [Example 176, N-(2-methoxyethyl)-2-{[1-(6-methoxy-2-naphthoyl)azetidin-3-yl]methyl}-4-methyl-2H-indazol-5-carboxamide]
19 | xxx (xxx > 100) | 3.08 | xxx (xxx > 100) | COCCNC(=O)c1ccc2nn(CC3CCN(C(=O)c4ccc(OC5CCCC5)cc4)CC3)cc2c1C [Example 31, 2-({1-[4-(cyclo-pentyloxy)benzoyl]-piperidin-4-yl}-methyl)-N-(2-methoxyethyl)-4-methyl-2H-indazol-5-carboxamide]
20 | xxx (xxx > 100) | 13.7 | xxx (xxx > 100) | O=C(NCCOCC1CC1)c1ccc2nn(CC3CCN(C(=O)c4ccc(Oc5ccc(F)cc5)cc4)CC3)cc2c1OC(F)F [Example 230, N-[2-(cyclopropylmethoxy)ethyl]-4-(difluoromethoxy)-2-({1-[4-(4-fluoro-phenoxy)benzoyl]piperidin-4-yl}methyl)-2H-indazol-5-carboxamide]

Row | Compound | Selectivity hEP2/hEP4 [1] | IC50 [2] [nM] | Selectivity hEP2/hDP [3]
21 | Cc1c(C(=O)NCCOC(C)(C)C)ccc2nn(CC3CCN(C(=O)c4ccc(-c5ccc(F)cc5)cc4)CC3)cc12 [Example 113, N-(2-tert-butoxyethyl)-2-({1-[(4′-fluoro-biphenyl-4-yl)-carbonyl]piperidin-4-yl}methyl)-4-methyl-2H-indazol-5-carboxamide] | xxx (xxx > 100) | 13.9 | xxx (xxx > 100)
